pIC50: −log10 of the molar value.
Target: T1, Human Factor XIIa (hFXIIa) (Homo sapiens, UniProt P00748)
T1 construct: purchased Enzyme Research Laboratories
T1 sequence (P00748 373-615 limits assumed): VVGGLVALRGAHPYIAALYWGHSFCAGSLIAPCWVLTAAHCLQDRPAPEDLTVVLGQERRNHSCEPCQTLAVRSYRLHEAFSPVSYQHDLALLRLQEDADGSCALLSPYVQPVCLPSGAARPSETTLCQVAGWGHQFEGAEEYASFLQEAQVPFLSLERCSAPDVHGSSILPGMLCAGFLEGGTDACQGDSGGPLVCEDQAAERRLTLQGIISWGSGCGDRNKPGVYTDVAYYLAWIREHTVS
T1 sequence (P00748 20-372 partner limits assumed): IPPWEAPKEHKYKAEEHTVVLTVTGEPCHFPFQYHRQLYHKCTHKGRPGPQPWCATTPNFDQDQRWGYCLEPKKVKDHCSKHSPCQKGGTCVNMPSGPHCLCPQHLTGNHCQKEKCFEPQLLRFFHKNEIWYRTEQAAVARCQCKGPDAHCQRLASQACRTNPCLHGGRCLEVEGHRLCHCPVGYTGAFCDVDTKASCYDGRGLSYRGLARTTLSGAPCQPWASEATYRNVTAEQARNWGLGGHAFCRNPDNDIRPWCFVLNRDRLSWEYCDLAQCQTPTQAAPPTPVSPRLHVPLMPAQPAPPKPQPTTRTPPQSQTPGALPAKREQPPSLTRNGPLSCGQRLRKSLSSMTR
Assay: Determination of Human Factor XIIa (hFXIIa) inhibition, fluorogenic substrate IC50 assay
Format: biochemical
Conditions: fluorogenic substrate H-DPro-Phe-Arg-AFC at Km, 25° C., read-out: Human FXIIa IC50
Experimental: Determination of Human Factor XIIa (hFXIIa) inhibition
The Km for the cleavage of the substrate by hFXIIa was determined by standard transformation of the Michaelis-Menten equation, with subsequent inhibition assays performed at substrate Km concentration.

SMILES	pIC50
CN1CCc2ccc(N3CCc4c(C(=O)NCC(O)C5CC5)nn(-c5cccc(Cl)c5)c4C3=O)cc2C1 (centres unmarked) [Example 1058, 1-(3-chlorophenyl)-N-(2-cyclopropyl-2-hydroxyethyl)-6-(2-methyl-1,2,3,4-tetrahydroisoquinolin-7-yl)-7-oxo-4,5,6,7-tetrahydro-1H-pyrazolo[3,4-c]pyridine-3-carboxamide]	6.00 to 6.52
CCC(C)N1CCc2ccc(N3CCc4c(C(=O)NCC5CC5)nn(-c5cccc(Cl)c5)c4C3=O)cc2C1 (centres unmarked) [Example 1059, 6-(2-(sec-butyl)-1,2,3,4-tetrahydroisoquinolin-7-yl)-1-(3-chlorophenyl)-N-(cyclopropylmethyl)-7-oxo-4,5,6,7-tetrahydro-1H-pyrazolo[3,4-c]pyridine-3-carboxamide]	6.52 to 7.00
COCC(C)N1CCc2ccc(N3CCc4c(C(=O)NCC5CC5)nn(-c5cccc(Cl)c5)c4C3=O)cc2C1 (centres unmarked) [Example 1060, 1-(3-chlorophenyl)-N-(cyclopropylmethyl)-6-(2-(1-methoxypropan-2-yl)-1,2,3,4-tetrahydroisoquinolin-7-yl)-7-oxo-4,5,6,7-tetrahydro-1H-pyrazolo[3,4-c]pyridine-3-carboxamide]	6.52 to 7.00
CCOCCN1CCc2ccc(N3CCc4c(C(=O)NCC5CC5)nn(-c5cccc(Cl)c5)c4C3=O)cc2C1 [Example 1061, 1-(3-chlorophenyl)-N-(cyclopropylmethyl)-6-(2-(2-ethoxyethyl)-1,2,3,4-tetrahydroisoquinolin-7-yl)-7-oxo-4,5,6,7-tetrahydro-1H-pyrazolo[3,4-c]pyridine-3-carboxamide]	6.52 to 7.00
CN1CCc2ccc(N3CCc4c(C(=O)N[C@@H](CO)c5ccccc5)nn(-c5cccc(Cl)c5)c4C3=O)cc2C1 [Example 1063, (R)-1-(3-chlorophenyl)-N-(2-hydroxy-1-phenylethyl)-6-(2-methyl-1,2,3,4-tetrahydroisoquinolin-7-yl)-7-oxo-4,5,6,7-tetrahydro-1H-pyrazolo[3,4-c]pyridine-3-carboxamide]	6.52 to 7.00
CN1CCc2ccc(N3CCc4c(C(=O)NC5(C)CCOCC5)nn(-c5cccc(Cl)c5)c4C3=O)cc2C1 [Example 1064, 1-(3-chlorophenyl)-6-(2-methyl-1,2,3,4-tetrahydroisoquinolin-7-yl)-N-(4-methyltetrahydro-2H-pyran-4-yl)-7-oxo-4,5,6,7-tetrahydro-1H-pyrazolo[3,4-c]pyridine-3-carboxamide]	6.00 to 6.52
Cc1cc(CNC(=O)c2nn(-c3cccc(Cl)c3)c3c2CCN(c2ccc4c(c2)CN(C)CC4)C3=O)[nH]n1 [Example 1065, 1-(3-chlorophenyl)-6-(2-methyl-1,2,3,4-tetrahydroisoquinolin-7-yl)-N-((3-methyl-1H-pyrazol-5-yl)methyl)-7-oxo-4,5,6,7-tetrahydro-1H-pyrazolo[3,4-c]pyridine-3-carboxamide]	7.00 to 8.00
COCc1nn(-c2cccc(Cl)c2)c2c1CCN(c1ccc3c(c1)CN(C)CC3)C2=O [Example 1066, 1-(3-Chlorophenyl)-3-(methoxymethyl)-6-(2-methyl-1,2,3,4-tetrahydroisoquinolin-7-yl)-1,4,5,6-tetrahydro-7H-pyrazolo[3,4-c]pyridin-7-one]	5.52 to 6.00
CN1CCc2ccc(N3CCc4c(C(=O)N5CCOCC5)nn(-c5cccc(Cl)c5)c4C3=O)cc2C1 [Example 1067, 1-(3-chlorophenyl)-6-(2-methyl-1,2,3,4-tetrahydroisoquinolin-7-yl)-3-(morpholine-4-carbonyl)-1,4,5,6-tetrahydro-7H-pyrazolo[3,4-c]pyridin-7-one]	5.52 to 6.00
CN1CCc2ccc(N3CCc4c(C(=O)NCc5ccoc5)nn(-c5cccc(Cl)c5)c4C3=O)cc2C1 [Example 1068, 1-(3-chlorophenyl)-N-(furan-3-ylmethyl)-6-(2-methyl-1,2,3,4-tetrahydroisoquinolin-7-yl)-7-oxo-4,5,6,7-tetrahydro-1H-pyrazolo[3,4-c]pyridine-3-carboxamide]	6.52 to 7.00
COCc1nn(-c2cccc(Cl)c2)c2c1CCN(c1ccc3c(c1)CN(CCO)CC3)C2=O [Example 1069, 1-(3-chlorophenyl)-6-(2-(2-hydroxyethyl)-1,2,3,4-tetrahydroisoquinolin-7-yl)-3-(methoxymethyl)-1,4,5,6-tetrahydro-7H-pyrazolo[3,4-c]pyridin-7-one]	6.00 to 6.52
C[C@H](O)CN1CCc2ccc(N3CCc4c(C(=O)NCC5CC5)nn(-c5cccc(Cl)c5)c4C3=O)cc2C1 [Example 1070, (S)-1-(3-chlorophenyl)-N-(cyclopropylmethyl)-6-(2-(2-hydroxypropyl)-1,2,3,4-tetrahydroisoquinolin-7-yl)-7-oxo-4,5,6,7-tetrahydro-1H-pyrazolo[3,4-c]pyridine-3-carboxamide]	6.52 to 7.00
O=C(NCC1CC1)c1nn(-c2cccc(Cl)c2)c2c1CCN(c1ccc3c(c1)CN(CC(F)(F)F)CC3)C2=O [Example 1071, 1-(3-chlorophenyl)-N-(cyclopropylmethyl)-7-oxo-6-(2-(2,2,2-trifluoroethyl)-1,2,3,4-tetrahydroisoquinolin-7-yl)-4,5,6,7-tetrahydro-1H-pyrazolo[3,4-c]pyridine-3-carboxamide]	5.52 to 6.00
O=C(NCC1CC1)c1nn(-c2cccc(Cl)c2)c2c1CCN(c1cccc(CN3CCCC3)c1)C2=O [Example 1072, 1-(3-Chlorophenyl)-N-(cyclopropylmethyl)-7-oxo-6-(3-(pyrrolidin-1-ylmethyl)phenyl)-4,5,6,7-tetrahydro-1H-pyrazolo[3,4-c]pyridine-3-carboxamide]	5.52 to 6.00
O=C(NCC1CC1)c1nn(-c2cccc(Cl)c2)c2c1CCN(c1cccc(CN3CC4CC4C3)c1)C2=O (centres unmarked) [Example 1073, 6-(3-((3-azabicyclo[3.1.0]hexan-3-yl)methyl)phenyl)-1-(3-chlorophenyl)-N-(cyclopropylmethyl)-7-oxo-4,5,6,7-tetrahydro-1H-pyrazolo[3,4-c]pyridine-3-carboxamide]	5.52 to 6.00
CN1CCc2ccc(N3CCc4c(C(=O)NC5CC6CCC5O6)nn(-c5cccc(Cl)c5)c4C3=O)cc2C1 (centres unmarked) [Example 1075, N-(7-oxabicyclo[2.2.1]heptan-2-yl)-1-(3-chlorophenyl)-6-(2-methyl-1,2,3,4-tetrahydroisoquinolin-7-yl)-7-oxo-4,5,6,7-tetrahydro-1H-pyrazolo[3,4-c]pyridine-3-carboxamide]	6.52 to 7.00
O=C(NCC1CC1)c1nn(-c2cccc(Cl)c2)c2c1CCN(c1ccc3c(c1)CN(CCCF)CC3)C2=O [Example 1080, 1-(3-chlorophenyl)-N-(cyclopropylmethyl)-6-(2-(3-fluoropropyl)-1,2,3,4-tetrahydroisoquinolin-7-yl)-7-oxo-4,5,6,7-tetrahydro-1H-pyrazolo[3,4-c]pyridine-3-carboxamide]	6.52 to 7.00
CC(=O)NCCN1CCc2ccc(N3CCc4c(C(=O)NCC5CC5)nn(-c5cccc(Cl)c5)c4C3=O)cc2C1 [Example 1081, 6-(2-(2-acetamidoethyl)-1,2,3,4-tetrahydroisoquinolin-7-yl)-1-(3-chlorophenyl)-N-(cyclopropylmethyl)-7-oxo-4,5,6,7-tetrahydro-1H-pyrazolo[3,4-c]pyridine-3-carboxamide]	6.00 to 6.52
CCN1Cc2cc(N3CCc4c(C(=O)NCC5CC5)nn(-c5cccc(Cl)c5)c4C3=O)ccc2C(C)(C)C1 [Example 1082, 1-(3-chlorophenyl)-N-(cyclopropylmethyl)-6-(2-ethyl-4,4-dimethyl-1,2,3,4-tetrahydroisoquinolin-7-yl)-7-oxo-4,5,6,7-tetrahydro-1H-pyrazolo[3,4-c]pyridine-3-carboxamide]	6.00 to 6.52
CS(=O)(=O)NCCN1CCc2ccc(N3CCc4c(C(=O)NCC5CC5)nn(-c5cccc(Cl)c5)c4C3=O)cc2C1 [Example 1083, 1-(3-chlorophenyl)-N-(cyclopropylmethyl)-6-(2-(2-(methylsulfonamido)ethyl)-1,2,3,4-tetrahydroisoquinolin-7-yl)-7-oxo-4,5,6,7-tetrahydro-1H-pyrazolo[3,4-c]pyridine-3-carboxamide]	6.52 to 7.00
CNC(=O)NCCN1CCc2ccc(N3CCc4c(C(=O)NCC5CC5)nn(-c5cccc(Cl)c5)c4C3=O)cc2C1 [Example 1084, 1-(3-chlorophenyl)-N-(cyclopropylmethyl)-6-(2-(2-(3-methylureido)ethyl)-1,2,3,4-tetrahydroisoquinolin-7-yl)-7-oxo-4,5,6,7-tetrahydro-1H-pyrazolo[3,4-c]pyridine-3-carboxamide]	6.52 to 7.00
CCN1CCc2ccc(N3CCc4c(C(=O)NCc5cc(C)n[nH]5)nn(-c5cccc(Cl)c5)c4C3=O)cc2C1 [Example 1086, 1-(3-chlorophenyl)-6-(2-ethyl-1,2,3,4-tetrahydroisoquinolin-7-yl)-N-((3-methyl-1H-pyrazol-5-yl)methyl)-7-oxo-4,5,6,7-tetrahydro-1H-pyrazolo[3,4-c]pyridine-3-carboxamide]	6.52 to 7.00
O=C(NCC1CC1)c1nn(-c2cccc(Cl)c2)c2c1CCN(c1ccc3c(c1)CN(CCCO)CC3)C2=O [Example 1087, 1-(3-chlorophenyl)-N-(cyclopropylmethyl)-6-(2-(3-hydroxypropyl)-1,2,3,4-tetrahydroisoquinolin-7-yl)-7-oxo-4,5,6,7-tetrahydro-1H-pyrazolo[3,4-c]pyridine-3-carboxamide]	6.52 to 7.00
